Results reported in the supplement of paper PMC10307832.

Assays:
Experiment in all cases: relative viability (nuclei count vs DMSO), 5 days (fraction); higher = more cells survive
LU99A = tested on: LU99A
Summary of the method: (§1)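 Lung cancer cell lines in 1536-well plates got either a single drug or a fixed anchor-drug dose together with five library-drug doses (not always all listed) in √10 steps, by pin tool, on the day after seeding. Nuclei were counted after 5 days, and relative viability is the treated-to-vehicle ratio of nuclei counts. Values are medians of duplicate plates.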

NCI-H1651 = tested on: NCI-H1651
Summary of the method: as §1

NCI-H2085 = tested on: NCI-H2085
Summary of the method: as §1

NCI-H596 = tested on: NCI-H596
Summary of the method: as §1

NCI-H1755 = tested on: NCI-H1755
Summary of the method: as §1

HCC-78 = tested on: HCC-78
Summary of the method: as §1

NCI-H3122 = tested on: NCI-H3122
Summary of the method: as §1

NCI-H322M = tested on: NCI-H322M
Summary of the method: as §1

PC-3 [JPC-3] = tested on: PC-3 [JPC-3]
Summary of the method: as §1

COR-L23 = tested on: COR-L23
Summary of the method: as §1

NCI-H522 = tested on: NCI-H522
Summary of the method: as §1

NCI-H460 = tested on: NCI-H460
Summary of the method: as §1

CCNC(=O)c1noc(-c2cc(C(C)C)c(O)cc2O)c1-c1ccc(CN2CCOCC2)cc1 [Luminespib] + O=C(c1cc(Cc2n[nH]c(=O)c3ccccc23)ccc1F)N1CCN(C(=O)C2CC2)CC1 [Olaparib] (partner 8 µM)
relative viability (LU99A; first compound 0.002 µM): 0.294
relative viability (LU99A; first compound 0.006325 µM): 0.236
relative viability (LU99A; first compound 0.02 µM): 0.226
relative viability (LU99A; first compound 0.06325 µM): 0.174
relative viability (LU99A; first compound 0.2 µM): 0.138
relative viability (NCI-H1651; first compound 0.002 µM): 0.195
relative viability (NCI-H1651; first compound 0.006325 µM): 0.177
relative viability (NCI-H1651; first compound 0.02 µM): 0.251
relative viability (NCI-H1651; first compound 0.06325 µM): 0.181
relative viability (NCI-H1651; first compound 0.2 µM): 0.165
relative viability (NCI-H2085; first compound 0.002 µM): 0.78
relative viability (NCI-H2085; first compound 0.006325 µM): 0.742
relative viability (NCI-H2085; first compound 0.02 µM): 0.766
relative viability (NCI-H2085; first compound 0.06325 µM): 0.425
relative viability (NCI-H2085; first compound 0.2 µM): 0.337
relative viability (NCI-H596; first compound 0.002 µM): 0.752
relative viability (NCI-H596; first compound 0.006325 µM): 0.695
relative viability (NCI-H596; first compound 0.02 µM): 0.749
relative viability (NCI-H596; first compound 0.06325 µM): 0.617
relative viability (NCI-H596; first compound 0.2 µM): 0.602
relative viability (NCI-H1755; first compound 0.002 µM): 0.917
relative viability (NCI-H1755; first compound 0.006325 µM): 0.808
relative viability (NCI-H1755; first compound 0.02 µM): 0.759
relative viability (NCI-H1755; first compound 0.06325 µM): 0.817
relative viability (NCI-H1755; first compound 0.2 µM): 0.794
relative viability (HCC-78; first compound 0.002 µM): 0.773
relative viability (HCC-78; first compound 0.006325 µM): 0.785
relative viability (HCC-78; first compound 0.02 µM): 0.723
relative viability (HCC-78; first compound 0.06325 µM): 0.643
relative viability (HCC-78; first compound 0.2 µM): 0.32
relative viability (NCI-H3122; first compound 0.002 µM): 0.626
relative viability (NCI-H3122; first compound 0.006325 µM): 0.567
relative viability (NCI-H3122; first compound 0.02 µM): 0.68
relative viability (NCI-H3122; first compound 0.06325 µM): 0.56
relative viability (NCI-H3122; first compound 0.2 µM): 0.646
relative viability (NCI-H322M; first compound 0.002 µM): 0.799
relative viability (NCI-H322M; first compound 0.006325 µM): 0.738
relative viability (NCI-H322M; first compound 0.02 µM): 0.729
relative viability (NCI-H322M; first compound 0.06325 µM): 0.344
relative viability (NCI-H322M; first compound 0.2 µM): 0.439
relative viability (PC-3 [JPC-3]; first compound 0.002 µM): 1.09
relative viability (PC-3 [JPC-3]; first compound 0.006325 µM): 1.04
relative viability (PC-3 [JPC-3]; first compound 0.02 µM): 0.863
relative viability (PC-3 [JPC-3]; first compound 0.06325 µM): 0.392
relative viability (PC-3 [JPC-3]; first compound 0.2 µM): 0.398
relative viability (COR-L23; first compound 0.002 µM): 0.371
relative viability (COR-L23; first compound 0.006325 µM): 0.344
relative viability (COR-L23; first compound 0.02 µM): 0.482
relative viability (COR-L23; first compound 0.06325 µM): 0.0712
relative viability (COR-L23; first compound 0.2 µM): 0.0572
relative viability (NCI-H522; first compound 0.002 µM): 0.757
relative viability (NCI-H522; first compound 0.006325 µM): 0.61
relative viability (NCI-H522; first compound 0.02 µM): 0.624
relative viability (NCI-H522; first compound 0.06325 µM): 0.437
relative viability (NCI-H522; first compound 0.2 µM): 0.4
relative viability (NCI-H460; first compound 0.002 µM): 0.514
relative viability (NCI-H460; first compound 0.006325 µM): 0.37
